Source: the NIST ThermoML archive (doi:10.1016/j.jct.2013.05.022)
± gives the expanded uncertainty stated by the source.

Assay: Boiling temperature at pressure P
Details: Liquid, Ebulliometric method (Recirculating still)

## CCO [ethanol]
13.33 kPa
  Boiling temperature at pressure P: 35.7 ± 0.9 °C
20 kPa
  Boiling temperature at pressure P: 43.1 ± 0.8 °C
26.66 kPa
  Boiling temperature at pressure P: 48.5 ± 0.8 °C
33.33 kPa
  Boiling temperature at pressure P: 53 ± 0.8 °C
40 kPa
  Boiling temperature at pressure P: 57 ± 0.8 °C
53.33 kPa
  Boiling temperature at pressure P: 63.1 ± 0.8 °C
66.66 kPa
  Boiling temperature at pressure P: 68.2 ± 0.8 °C
79.99 kPa
  Boiling temperature at pressure P: 72.5 ± 0.8 °C
93.33 kPa
  Boiling temperature at pressure P: 76.2 ± 0.8 °C
98.12 kPa
  Boiling temperature at pressure P: 77.7 ± 0.8 °C
101.33 kPa
  Boiling temperature at pressure P: 78.2 ± 0.8 °C

## C=CC(C)(O)CCC=C(C)C (centres undefined) [3,7-dimethyl-1,6-octadien-3-ol]
13.33 kPa
  Boiling temperature at pressure P: 133.2 ± 0.9 °C
20 kPa
  Boiling temperature at pressure P: 143.7 ± 0.9 °C
26.66 kPa
  Boiling temperature at pressure P: 152.1 ± 0.9 °C
33.33 kPa
  Boiling temperature at pressure P: 159 ± 0.8 °C
40 kPa
  Boiling temperature at pressure P: 164.7 ± 0.8 °C
53.33 kPa
  Boiling temperature at pressure P: 174.1 ± 0.8 °C
66.66 kPa
  Boiling temperature at pressure P: 182 ± 0.8 °C
79.99 kPa
  Boiling temperature at pressure P: 188.5 ± 0.8 °C
